Laboratory results as given in patent US8445510B2, “Fused bicyclic kinase inhibitors” (OSI Pharmaceuticals, LLC, priority 2011, dated 2013).

Columns and labels:
Assay type in all cases: cell-based
[1] = tested on: MKN45 cells; assay: MKN45 cell proliferation assay (CellTiter-Glo); conditions: Homo sapiens, MKN-45, 72 h; MKN45 cell line; 3 days incubation; at least duplicate experiments; read-out: Prolif. IC50
[2] = biological target: T1, Aurora B (Homo sapiens, UniProt Q96GD4); assay: Aurora B cell mechanistic assay (HT-29), phospho-Histone H3 (Ser10) ELISA; conditions: HT-29 cell line; inhibition of phospho-Histone H3 (Ser10); at least duplicate experiments (italicized if single experiment); read-out: Aurora B mech IC50
T1 construct: HT-29 cells grown in complete growth media
T1 sequence (Q96GD4 whole entry): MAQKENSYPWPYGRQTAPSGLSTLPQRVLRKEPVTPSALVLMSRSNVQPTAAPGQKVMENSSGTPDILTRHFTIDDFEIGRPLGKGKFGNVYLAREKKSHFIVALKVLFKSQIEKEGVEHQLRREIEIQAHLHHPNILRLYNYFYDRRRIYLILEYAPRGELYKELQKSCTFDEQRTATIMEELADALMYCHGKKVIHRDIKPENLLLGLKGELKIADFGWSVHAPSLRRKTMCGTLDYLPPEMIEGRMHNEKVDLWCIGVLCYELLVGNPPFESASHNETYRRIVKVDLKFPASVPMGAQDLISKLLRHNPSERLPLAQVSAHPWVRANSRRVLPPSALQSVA
Method: The cellular activity of the compounds of the present invention against Aurora B may be determined by the following procedure. HT-29 cells grown in complete growth media (McCoy's 5A, 10% FCS, 1% L-glutamine) were plated into wells of a 96 well tissue culture plate (Falcon 3072) at a cell density of 4×10^4 cells/0.09 ml media/well. Cells were subsequently incubated overnight in a 5% CO2 humidified 37° C. incubator. The following day 10 μl of a 10× stock of test compound serially diluted in media was added to the cells and incubated for 1 h at 37° C. at which time Calyculin A (Cell Signaling #9902) was added at a concentration of 100 nM and cells incubated for an additional 30 minutes in a 5% CO2 humidified 37° C. incubator. Media was then aspirated and cells lysed using a Triton based lysis buffer. Lysates were transferred to a pre-coated anti-Histone H3 antibody coated plate supplied by Cell Signaling in their PathScan phospho-Histone H3 (Ser10) ELISA kit (#7155). After an overnight incubation with lysate the ELISA was continued following the manufacturer's instructions. Signal was measured on a Wallac Victor plate reader at 450 nm. DMSO control treated cells served as 100% signal and an Aurora B kinase inhibitor served as 100% inhibition. The percent inhibition of phospho-Histone H3 (Ser10) was expressed as % control. IC50 values were calculated from the percent control data using a standard four-parameter model.
The IC50 values of exemplary compounds of the present invention determined in a Aurora B cell mechanistic assay using the HT-29 cell line according to the procedures described herein in at least duplicate experiments are abbreviated as follows and are shown in Table 4: A, IC50≦0.05 μM; B, 0.05 μM<IC50≦0.2 μM; C, 0.2 μM<IC50≦1 μM; D, IC50>1 μM; ND, not determined. If only data from single experiments are available, the abbreviations are italicized. The Example # of Table 4 corresponds to the compound example number as illustrated in the Examples section.

[3] = tested on: Karpas-299 cells; assay: Karpas-299 cell proliferation assay (CellTiter-Glo); conditions: Homo sapiens, 72 h; Karpas-299 cell line (NPM-ALK); 3 days incubation; at least duplicate experiments; read-out: Prolif. IC50
[4] = biological target: T2, RON (Homo sapiens, UniProt Q04912); assay: sfRON cell mechanistic assay (HeLa), phosphorylated RON ELISA; conditions: HeLa cells transfected with sfRON; inhibition of phosphorylated RON; four hours incubation; at least duplicate experiments; read-out: sfRON mech IC50
T2 sequence (Q04912 913-1400): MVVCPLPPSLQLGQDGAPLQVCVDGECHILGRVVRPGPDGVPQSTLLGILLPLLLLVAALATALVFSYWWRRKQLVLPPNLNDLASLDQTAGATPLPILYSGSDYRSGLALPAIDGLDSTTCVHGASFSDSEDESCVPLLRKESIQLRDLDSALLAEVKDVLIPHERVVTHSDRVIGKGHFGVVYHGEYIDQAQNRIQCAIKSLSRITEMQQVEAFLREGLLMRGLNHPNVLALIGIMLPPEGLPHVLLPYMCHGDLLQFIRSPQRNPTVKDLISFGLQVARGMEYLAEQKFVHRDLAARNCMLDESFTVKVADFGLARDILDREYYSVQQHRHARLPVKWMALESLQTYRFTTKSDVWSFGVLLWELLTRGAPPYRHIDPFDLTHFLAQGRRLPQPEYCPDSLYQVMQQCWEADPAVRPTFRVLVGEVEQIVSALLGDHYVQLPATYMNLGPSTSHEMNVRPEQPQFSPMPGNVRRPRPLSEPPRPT
Procedure, shortened: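 HeLa cells transiently transfected with sfRON plasmid, then exposed 4 h at 37 °C to a 6-point compound series (typically 10 μM to 3 nM, 0.5% DMSO). Phospho-RON (pY1238/1239) in lysates measured by sandwich ELISA with luminescence. IC50 from 4-parameter fit of percent-of-DMSO-control data, at least duplicate runs.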

| SMILES | IC50 [1] [nM] | IC50 [2] [nM] | IC50 [3] [nM] | IC50 [4] [nM] |
| --- | --- | --- | --- | --- |
| COc1ccc(F)c(Cl)c1[C@@H](C)c1c[nH]c2ncc(-c3cn(C[C@H](O)CO)nc3C)cc12 [Example 9, (2S)-3-(4-{3-[(1S)-1-(2-Chloro-3-fluoro-6-methoxyphenyl)ethyl]-1H-pyrrolo[2,3-b]pyridin-5-yl}-3-methyl-1H-pyrazol-1-yl)propane-1,2-diol] | ≤ 50 | 200 to 1000 | ≤ 50 |  |
| COc1ccc(F)c(Cl)c1[C@@H](C)c1c[nH]c2ncc(-c3cn(C)nc3C(F)(F)F)cc12 [Example 29, 3-[(1S)-1-(2-Chloro-3-fluoro-6-methoxyphenyl)ethyl]-5-[1-methyl-3-(trifluoromethyl)-1H-pyrazol-4-yl]-1H-pyrrolo[2,3-b]pyridine] | > 1000 | > 1000 | > 1000 |  |
| COc1ccc(F)c(Cl)c1[C@@H](C)c1c[nH]c2ncc(-c3cn(CC(C)(C)O)nc3C(F)(F)F)cc12 [Example 30, 1-[4-{3-[(1S)-1-(2-Chloro-3-fluoro-6-methoxyphenyl)ethyl]-1H-pyrrolo[2,3-b]pyridin-5-yl}-3-(trifluoromethyl)-1H-pyrazol-1-yl]-2-methylpropan-2-ol] | 200 to 1000 | > 1000 | 200 to 1000 |  |
| COc1ccc(F)c(Cl)c1[C@@H](C)c1c[nH]c2ncc(-c3cnn(C)c3Cl)cc12 [Example 59, 3-[(1S)-1-(2-Chloro-3-fluoro-6-methoxyphenyl)ethyl]-5-(5-chloro-1-methyl-1H-pyrazol-4-yl)-1H-pyrrolo[2,3-b]pyridine] |  | > 1000 | 200 to 1000 | > 1000 |
| Cc1c(-c2cnc3[nH]cc([C@H](C)c4c(OC[C@@H](O)CO)ccc(F)c4Cl)c3c2)cnn1C [Example 68, (2S)-3-(3-Chloro-2-{(1S)-1-[5-(1,5-dimethyl-1H-pyrazol-4-yl)-1H-pyrrolo[2,3-b]pyridin-3-yl]ethyl}-4-fluorophenoxy)propane-1,2-diol] | > 1000 | > 1000 | 200 to 1000 |  |
| CCOc1ccc(F)c(Cl)c1[C@@H](C)c1c[nH]c2ncc(-c3c(C)nn(C[C@@H](O)CO)c3C)cc12 [Example 101, (2R)-3-(4-{3-[(1S)-1-(2-Chloro-6-ethoxy-3-fluorophenyl)ethyl]-1H-pyrrolo[2,3-b]pyridin-5-yl}-3,5-dimethyl-1H-pyrazol-1-yl)propane-1,2-diol] | ≤ 50 | > 1000 | ≤ 50 |  |
| Cc1c(-c2cnc3[nH]cc([C@H](C)c4c(OC[C@H](O)CO)ccc(F)c4Cl)c3c2)cnn1C [Example 127, (2R)-3-(3-Chloro-2-{(1S)-1-[5-(1,5-dimethyl-1H-pyrazol-4-yl)-1H-pyrrolo[2,3-b]pyridin-3-yl]ethyl}-4-fluorophenoxy)propane-1,2-diol] | > 1000 | > 1000 | 200 to 1000 |  |
